The values below come from patent US10800791B2, “Triazole ACC inhibitors and uses thereof” (Gilead Apollo, LLC, priority 2015, dated 2020).

Converted amounts (≈) assume the structure as drawn. Where two headings read alike, the source gives them in different places.

In one experiment the target is human (hACC2) (Homo sapiens, UniProt O00763). The experiment is described as follows: In vitro ACC inhibition assay (ADP-Glo), hACC2. It is filed as biochemical. As to conditions: 5 nM ACC2, 20 μM ATP, 20 μM acetyl-CoA. The procedure: The detailed procedure is as follows. […] 10 μL ADP glo reagent was added. […] 20 μL kinase detection reagent was added.
For a further experiment, the system named is C. krusei. The experiment is described as follows: Antifungal Activity Assay (broth microtiter MIC), C. krusei. It is filed as cell-based, Candida krusei. As to conditions: Pichia kudriavzevii, ATCC6258, 48 h. In short, it runs like this: (§1)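 Endpoint: lowest concentration visibly inhibiting growth relative to control after 48 h. Inoculum of 2.5×10^3 CFU/mL final in RPMI 1640+MOPS, prepared from overnight 35° C agar cultures; test compounds diluted in water to 128 μg/mL before plating.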

The next experiment relates to C. albicans. The experiment is described as follows: Antifungal Activity Assay (broth microtiter MIC), C. albicans. It counts as cell-based, Candida albicans. As to conditions: Candida albicans, ATCC90028, 48 h. In short, it runs like this: as §1
For the next experiment, the system named is C. parapsilosis. The experiment is described as follows: Antifungal Activity Assay (broth microtiter MIC), C. parapsilosis. It is filed as cell-based, Candida parapsilosis. Conditions: Lodderomyces parapsilosis, ATCC22019, 48 h. In short, it runs like this: as §1
In another experiment the target is fungal (fACC2) (UniProt Q00955). As to conditions: read-out: fACC2 (in vitro ACC2 Inhibition Assay, IC50), ADP-Glo, 5 nM ACC2, 20 μM ATP, 20 μM acetyl-CoA.
Setting [1] is: Table 3a, ATCC 6258, 3 replicates, MIC recorded at 48 h, read-out: MIC, C. krusei ATCC 6258.
[2] abbreviates: Table 3b (additional results), ATCC 6258, 3 replicates, MIC recorded at 48 h, read-out: MIC, C. krusei ATCC 6258.
Where [3] appears, read: Table 3a, ATCC 90028, 3 replicates, MIC recorded at 48 h, read-out: MIC, C. albicans ATCC 90028.
Setting [4] is: Table 3b (additional results), ATCC 90028, 3 replicates, MIC recorded at 48 h, read-out: MIC, C. albicans ATCC 90028.
Setting [5] is: Table 3a, ATCC 22019, 3 replicates, MIC recorded at 48 h, read-out: MIC, C. parapsilosis ATCC 22019.
Setting [6] is: Table 3b (additional results), ATCC 22019, 3 replicates, MIC recorded at 48 h, read-out: MIC, C. parapsilosis ATCC 22019.
Where [7] appears, read: read-out: MIC, C. krusei ATCC 6258, Table 3b (additional results), 3 replicates, MIC recorded at 48 h.
[8] abbreviates: read-out: MIC, C. albicans ATCC 90028, Table 3b (additional results), 3 replicates, MIC recorded at 48 h.
Setting [9] is: read-out: MIC, C. parapsilosis ATCC 22019, Table 3b (additional results), 3 replicates, MIC recorded at 48 h.

Chain of fungal (fACC2) (Q00955 whole entry): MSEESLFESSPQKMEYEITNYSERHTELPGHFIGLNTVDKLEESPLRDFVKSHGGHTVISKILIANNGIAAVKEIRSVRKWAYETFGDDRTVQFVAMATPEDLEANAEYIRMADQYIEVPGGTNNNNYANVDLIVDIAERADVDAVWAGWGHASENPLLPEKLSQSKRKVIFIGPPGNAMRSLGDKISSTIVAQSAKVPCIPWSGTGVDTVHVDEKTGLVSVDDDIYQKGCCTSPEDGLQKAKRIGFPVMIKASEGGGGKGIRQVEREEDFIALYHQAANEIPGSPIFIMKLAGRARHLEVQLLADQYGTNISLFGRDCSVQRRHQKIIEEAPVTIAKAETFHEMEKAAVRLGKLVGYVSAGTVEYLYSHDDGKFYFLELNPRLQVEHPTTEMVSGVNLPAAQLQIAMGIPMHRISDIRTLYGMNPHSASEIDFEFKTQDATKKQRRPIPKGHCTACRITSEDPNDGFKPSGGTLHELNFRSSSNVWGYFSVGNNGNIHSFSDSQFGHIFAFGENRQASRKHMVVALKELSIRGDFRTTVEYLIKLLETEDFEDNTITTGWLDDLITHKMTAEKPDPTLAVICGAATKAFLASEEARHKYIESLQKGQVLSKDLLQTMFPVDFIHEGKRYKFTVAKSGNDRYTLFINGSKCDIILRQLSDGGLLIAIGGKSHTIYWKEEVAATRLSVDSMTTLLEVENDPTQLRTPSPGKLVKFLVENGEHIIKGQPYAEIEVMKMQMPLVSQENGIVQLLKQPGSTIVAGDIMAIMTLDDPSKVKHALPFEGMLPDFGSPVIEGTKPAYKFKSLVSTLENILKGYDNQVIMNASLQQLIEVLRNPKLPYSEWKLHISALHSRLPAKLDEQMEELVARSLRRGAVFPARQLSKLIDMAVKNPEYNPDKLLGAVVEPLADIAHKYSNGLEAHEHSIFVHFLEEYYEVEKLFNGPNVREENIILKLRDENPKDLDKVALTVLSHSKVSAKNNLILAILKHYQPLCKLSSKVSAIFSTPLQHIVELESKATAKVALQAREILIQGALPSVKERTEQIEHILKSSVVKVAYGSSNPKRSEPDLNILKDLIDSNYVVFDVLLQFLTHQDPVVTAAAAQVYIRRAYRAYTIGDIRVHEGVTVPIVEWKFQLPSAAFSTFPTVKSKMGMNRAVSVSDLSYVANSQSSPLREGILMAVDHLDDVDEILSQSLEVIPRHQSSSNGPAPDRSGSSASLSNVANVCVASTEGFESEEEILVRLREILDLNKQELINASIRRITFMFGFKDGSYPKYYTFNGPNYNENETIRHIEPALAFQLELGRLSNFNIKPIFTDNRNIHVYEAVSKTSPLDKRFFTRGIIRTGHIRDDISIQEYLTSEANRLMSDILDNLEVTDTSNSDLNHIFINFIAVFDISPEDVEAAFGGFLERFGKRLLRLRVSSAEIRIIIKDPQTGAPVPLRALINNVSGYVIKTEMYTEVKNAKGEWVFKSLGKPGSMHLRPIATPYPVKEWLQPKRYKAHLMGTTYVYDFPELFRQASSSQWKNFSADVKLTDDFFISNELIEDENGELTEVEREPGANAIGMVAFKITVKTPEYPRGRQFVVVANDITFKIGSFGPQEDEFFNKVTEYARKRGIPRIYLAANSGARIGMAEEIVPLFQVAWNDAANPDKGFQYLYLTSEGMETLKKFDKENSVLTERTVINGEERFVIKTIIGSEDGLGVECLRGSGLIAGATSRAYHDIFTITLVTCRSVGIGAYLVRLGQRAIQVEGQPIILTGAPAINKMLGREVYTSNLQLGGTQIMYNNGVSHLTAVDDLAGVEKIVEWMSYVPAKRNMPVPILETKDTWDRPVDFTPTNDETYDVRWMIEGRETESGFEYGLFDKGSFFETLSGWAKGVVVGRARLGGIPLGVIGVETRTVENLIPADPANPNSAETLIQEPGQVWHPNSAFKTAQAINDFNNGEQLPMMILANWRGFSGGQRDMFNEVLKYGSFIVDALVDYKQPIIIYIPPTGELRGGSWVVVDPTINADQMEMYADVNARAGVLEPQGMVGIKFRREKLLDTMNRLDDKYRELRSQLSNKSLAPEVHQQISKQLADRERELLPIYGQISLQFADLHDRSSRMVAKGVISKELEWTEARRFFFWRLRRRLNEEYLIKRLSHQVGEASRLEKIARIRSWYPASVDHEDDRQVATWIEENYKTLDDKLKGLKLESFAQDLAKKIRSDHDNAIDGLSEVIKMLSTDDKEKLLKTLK
Chain of human (hACC2) (O00763 whole entry): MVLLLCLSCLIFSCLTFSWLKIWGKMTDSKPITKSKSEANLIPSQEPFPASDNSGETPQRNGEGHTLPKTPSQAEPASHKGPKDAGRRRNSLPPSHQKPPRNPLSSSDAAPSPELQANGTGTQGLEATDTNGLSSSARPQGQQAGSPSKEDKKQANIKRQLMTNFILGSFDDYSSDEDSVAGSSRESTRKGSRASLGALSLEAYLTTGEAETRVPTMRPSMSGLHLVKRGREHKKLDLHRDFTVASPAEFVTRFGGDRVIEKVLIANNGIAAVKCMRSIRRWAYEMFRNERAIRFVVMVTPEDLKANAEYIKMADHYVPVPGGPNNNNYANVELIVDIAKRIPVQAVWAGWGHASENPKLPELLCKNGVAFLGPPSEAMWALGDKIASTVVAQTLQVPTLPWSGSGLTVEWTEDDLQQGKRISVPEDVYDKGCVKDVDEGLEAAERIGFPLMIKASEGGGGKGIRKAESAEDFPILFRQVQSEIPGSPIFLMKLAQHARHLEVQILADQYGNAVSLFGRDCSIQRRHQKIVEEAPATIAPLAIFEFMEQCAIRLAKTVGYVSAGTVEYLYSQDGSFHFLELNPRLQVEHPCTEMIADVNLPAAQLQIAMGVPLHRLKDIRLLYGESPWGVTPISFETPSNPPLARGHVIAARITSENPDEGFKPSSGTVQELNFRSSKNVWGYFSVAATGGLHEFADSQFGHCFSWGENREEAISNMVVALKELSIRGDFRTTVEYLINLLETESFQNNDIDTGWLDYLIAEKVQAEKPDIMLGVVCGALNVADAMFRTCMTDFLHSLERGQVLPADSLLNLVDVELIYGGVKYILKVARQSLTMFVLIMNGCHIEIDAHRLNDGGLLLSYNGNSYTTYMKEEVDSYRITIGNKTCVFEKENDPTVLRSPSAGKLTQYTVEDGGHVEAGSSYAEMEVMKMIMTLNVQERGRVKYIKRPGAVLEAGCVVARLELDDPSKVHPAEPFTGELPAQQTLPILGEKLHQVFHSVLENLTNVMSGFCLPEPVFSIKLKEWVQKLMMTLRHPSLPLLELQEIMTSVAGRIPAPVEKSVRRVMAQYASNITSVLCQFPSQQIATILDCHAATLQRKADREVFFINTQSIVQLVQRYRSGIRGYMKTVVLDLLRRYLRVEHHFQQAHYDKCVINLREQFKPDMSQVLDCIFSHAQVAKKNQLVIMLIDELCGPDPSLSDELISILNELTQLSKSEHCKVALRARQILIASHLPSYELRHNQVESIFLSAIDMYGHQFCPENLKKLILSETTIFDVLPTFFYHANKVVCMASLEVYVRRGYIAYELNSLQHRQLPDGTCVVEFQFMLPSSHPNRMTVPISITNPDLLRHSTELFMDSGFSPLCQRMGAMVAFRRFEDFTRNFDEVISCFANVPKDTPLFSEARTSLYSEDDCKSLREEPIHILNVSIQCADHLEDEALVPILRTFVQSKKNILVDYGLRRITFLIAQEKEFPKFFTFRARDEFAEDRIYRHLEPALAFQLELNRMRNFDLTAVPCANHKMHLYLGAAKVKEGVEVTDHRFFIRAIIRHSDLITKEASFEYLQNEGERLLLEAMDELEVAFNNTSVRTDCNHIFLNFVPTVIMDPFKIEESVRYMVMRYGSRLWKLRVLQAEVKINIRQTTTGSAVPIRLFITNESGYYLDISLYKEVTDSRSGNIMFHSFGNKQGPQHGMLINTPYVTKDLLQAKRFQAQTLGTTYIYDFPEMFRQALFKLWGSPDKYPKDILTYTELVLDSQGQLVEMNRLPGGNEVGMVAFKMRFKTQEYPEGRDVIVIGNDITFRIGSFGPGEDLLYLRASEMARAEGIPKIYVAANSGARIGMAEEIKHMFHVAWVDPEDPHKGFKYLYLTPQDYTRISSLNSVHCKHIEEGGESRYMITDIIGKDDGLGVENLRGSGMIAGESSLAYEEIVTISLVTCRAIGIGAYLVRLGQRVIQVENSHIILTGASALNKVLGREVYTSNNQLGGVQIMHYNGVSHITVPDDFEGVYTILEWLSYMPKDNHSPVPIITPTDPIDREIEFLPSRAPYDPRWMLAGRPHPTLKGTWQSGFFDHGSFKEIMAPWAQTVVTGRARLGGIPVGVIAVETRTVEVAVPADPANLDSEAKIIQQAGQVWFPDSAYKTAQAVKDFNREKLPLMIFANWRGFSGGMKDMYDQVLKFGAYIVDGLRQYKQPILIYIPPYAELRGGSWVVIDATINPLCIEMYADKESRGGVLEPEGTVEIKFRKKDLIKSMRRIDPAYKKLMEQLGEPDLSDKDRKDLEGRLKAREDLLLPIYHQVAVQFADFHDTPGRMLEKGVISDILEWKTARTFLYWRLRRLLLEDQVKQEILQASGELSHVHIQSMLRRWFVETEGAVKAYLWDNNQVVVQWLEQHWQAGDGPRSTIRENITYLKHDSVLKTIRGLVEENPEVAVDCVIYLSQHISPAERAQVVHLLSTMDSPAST

The IC50 is the point on the concentration scale where inhibition reaches its midpoint. As a reminder, the MIC is the least concentration at which growth counts as inhibited. On to `COc1ccc(F)cc1[C@H](Cn1c(=O)n(C(C)(C)C(=O)N(O)C(C)C)c(=O)c2c(C)c(-n3nccn3)sc21)OCCCO` [Compound I-163], for which the IC50 against human (hACC2) (Table 2a) lay within 5 to 10 nM; against human (hACC2) (Table 2b, additional results), 5 to 10 nM; at fungal (fACC2) (Table 2a) it was 1 to 5 nM; at fungal (fACC2) (Table 2b, additional results) it was 1 to 5 nM. In addition, the MIC in the experiment on C. krusei (setting [1]) lay within 0.25 to 1 µg/mL (≈ 0.404 to 1.62 µM); with C. krusei (setting [2]), 0.25 to 1 µg/mL (≈ 0.404 to 1.62 µM); in the experiment on C. albicans (setting [3]), 0.25 to 1 µg/mL (≈ 0.404 to 1.62 µM); in the experiment with C. albicans (setting [4]), 1.01 to 2 µg/mL (≈ 1.63 to 3.23 µM); with C. parapsilosis (setting [5]) it was 0.25 to 1 µg/mL (≈ 0.404 to 1.62 µM); in the experiment on C. parapsilosis (setting [6]), 2.01 to 4 µg/mL (≈ 3.25 to 6.47 µM).

As for `COc1ccc(F)cc1[C@H](Cn1c(=O)n([C@H](C)C(=O)N(C)C(C)C)c(=O)c2c(C)c(-n3nccn3)sc21)OC1CCC(=O)CC1` [Compound I-164], the IC50 on human (hACC2) (Table 2a) fell in the range of 5 to 10 nM; against human (hACC2) (Table 2b, additional results) it was 5 to 10 nM; on fungal (fACC2) (Table 2a), 1 to 5 nM; on fungal (fACC2) (Table 2b, additional results), 1 to 5 nM. Further, the MIC with C. krusei (setting [1]) is 0.25 to 1 µg/mL (≈ 0.39 to 1.56 µM); in the experiment with C. krusei (setting [2]) it was 0.25 to 1 µg/mL (≈ 0.39 to 1.56 µM); with C. albicans (setting [3]), 0.25 to 1 µg/mL (≈ 0.39 to 1.56 µM); in the experiment on C. albicans (setting [4]) it was 0.25 to 1 µg/mL (≈ 0.39 to 1.56 µM); with C. parapsilosis (setting [5]), 0.25 to 1 µg/mL (≈ 0.39 to 1.56 µM); in the experiment with C. parapsilosis (setting [6]), 1.01 to 2 µg/mL (≈ 1.58 to 3.12 µM).

As to `COc1ccc(F)cc1[C@H](Cn1c(=O)n([C@@H](C)C(=O)N(C)C(C)C)c(=O)c2c(C)c(-n3nccn3)sc21)OC1CCC(=O)CC1` [Compound I-165], the IC50 against human (hACC2) (Table 2a) fell in the range of 5 to 10 nM; against human (hACC2) (Table 2b, additional results) it was 5 to 10 nM; at fungal (fACC2) (Table 2a), 1 to 5 nM; at fungal (fACC2) (Table 2b, additional results), 1 to 5 nM. The MIC in the experiment with C. krusei (setting [1]) lay within 0.25 to 1 µg/mL (≈ 0.39 to 1.56 µM); in the experiment with C. krusei (setting [2]), 0.25 to 1 µg/mL (≈ 0.39 to 1.56 µM); with C. albicans (setting [3]), 0.25 to 1 µg/mL (≈ 0.39 to 1.56 µM); with C. albicans (setting [4]) it was 0.25 to 1 µg/mL (≈ 0.39 to 1.56 µM); in the experiment on C. parapsilosis (setting [5]), 1.1 to 2 µg/mL (≈ 1.72 to 3.12 µM); in the experiment on C. parapsilosis (setting [6]) it was 1.01 to 2 µg/mL (≈ 1.58 to 3.12 µM).

Regarding `COc1ccc(F)cc1[C@H](Cn1c(=O)n([C@H](C)C(=O)N(C)C(C)C)c(=O)c2c(C)c(-n3nccn3)sc21)O[C@H]1CC[C@@H](O)CC1` [Compound I-166], the IC50 was 1 to 5 nM against human (hACC2) (Table 2a); 1 to 5 nM against human (hACC2) (Table 2b, additional results); 0.4 to 1 nM on fungal (fACC2) (Table 2a); 0.3 to 1 nM at fungal (fACC2) (Table 2b, additional results). Moreover, the MIC in the experiment on C. krusei (setting [1]) was 0.25 to 1 µg/mL (≈ 0.389 to 1.56 µM); in the experiment on C. krusei (setting [2]), 1.01 to 2 µg/mL (≈ 1.57 to 3.11 µM); in the experiment with C. albicans (setting [3]), 0.25 to 1 µg/mL (≈ 0.389 to 1.56 µM); in the experiment with C. albicans (setting [4]), 0.25 to 1 µg/mL (≈ 0.389 to 1.56 µM); with C. parapsilosis (setting [5]) it was 0.25 to 1 µg/mL (≈ 0.389 to 1.56 µM); in the experiment on C. parapsilosis (setting [6]), 1.01 to 2 µg/mL (≈ 1.57 to 3.11 µM).

In the case of `COc1ccc(F)cc1[C@H](Cn1c(=O)n([C@@H](C)C(=O)N(C)C(C)C)c(=O)c2c(C)c(-n3nccn3)sc21)O[C@H]1CC[C@@H](O)CC1` [Compound I-167], the IC50 against human (hACC2) (Table 2a) was 5 to 10 nM; on human (hACC2) (Table 2b, additional results), 5 to 10 nM; at fungal (fACC2) (Table 2a), 0.4 to 1 nM; at fungal (fACC2) (Table 2b, additional results), 0.3 to 1 nM. For the same molecule, the MIC with C. krusei (setting [1]) was in the range of 0.25 to 1 µg/mL (≈ 0.389 to 1.56 µM); in the experiment on C. krusei (setting [2]), 1.01 to 2 µg/mL (≈ 1.57 to 3.11 µM); in the experiment on C. albicans (setting [3]) it was 1.1 to 2 µg/mL (≈ 1.71 to 3.11 µM); in the experiment with C. albicans (setting [4]) it was 0.25 to 1 µg/mL (≈ 0.389 to 1.56 µM); in the experiment with C. parapsilosis (setting [5]), 2.1 to 4 µg/mL (≈ 3.27 to 6.22 µM); in the experiment on C. parapsilosis (setting [6]), 1.01 to 2 µg/mL (≈ 1.57 to 3.11 µM).

`COc1ccc(F)cc1[C@H](Cn1c(=O)n(C(C)(C)C(=O)NC(C)C)c(=O)c2c(C)c(-n3nccn3)sc21)OCCC(C)(C)O` [Compound I-168]: the IC50 at human (hACC2) (Table 2a) lay within 5 to 10 nM; at human (hACC2) (Table 2b, additional results) it was 5 to 10 nM; at fungal (fACC2) (Table 2a) it was 1 to 5 nM; on fungal (fACC2) (Table 2b, additional results) it was 1 to 5 nM. Besides, the minimal inhibitory concentration (MIC) with C. krusei (setting [7]), with C. albicans (setting [8]) and with C. parapsilosis (setting [9]) was 0.25 to 1 µg/mL (≈ 0.396 to 1.59 µM) each time.

Regarding `COc1ccc(F)cc1[C@H](Cn1c(=O)n([C@H](C)C(=O)N(C)C(C)C)c(=O)c2c(C)c(-n3nccn3)sc21)OCC(C)(C)O` [Compound I-169], the IC50 at human (hACC2) (Table 2a) was > 40 nM; at human (hACC2) (Table 2b, additional results), > 40 nM; at fungal (fACC2) (Table 2a), 1 to 5 nM; on fungal (fACC2) (Table 2b, additional results), 1 to 5 nM. For the same molecule, the MIC is > 4.01 µg/mL with C. krusei (setting [2]), 0.25 to 1 µg/mL (≈ 0.405 to 1.62 µM) with C. albicans (setting [4]) and 2.01 to 4 µg/mL (≈ 3.26 to 6.49 µM) with C. parapsilosis (setting [6]).

As for `COc1ccc(F)cc1[C@H](Cn1c(=O)n([C@@H](C)C(=O)N(C)C(C)C)c(=O)c2c(C)c(-n3nccn3)sc21)OCC(C)(C)O` [Compound I-170], the IC50 was 10 to 40 nM at human (hACC2) (Table 2a); 10 to 40 nM at human (hACC2) (Table 2b, additional results); 0.4 to 1 nM on fungal (fACC2) (Table 2a); 0.3 to 1 nM on fungal (fACC2) (Table 2b, additional results). In addition, the figures for the MIC in the experiment with C. krusei (setting [2]), in the experiment with C. albicans (setting [4]) and with C. parapsilosis (setting [6]) were > 4.01 µg/mL, 0.25 to 1 µg/mL (≈ 0.405 to 1.62 µM) and 2.01 to 4 µg/mL (≈ 3.26 to 6.49 µM), respectively.

As to `COc1ccc(F)cc1[C@H](Cn1c(=O)n([C@H](C)C(=O)NC(C)C)c(=O)c2c(C)c(-n3nccn3)sc21)OCC(C)(C)O` [Compound I-171], the IC50 fell in the range of 10 to 40 nM at human (hACC2) (Table 2a); 10 to 40 nM against human (hACC2) (Table 2b, additional results); 1 to 5 nM on fungal (fACC2) (Table 2a); 1 to 5 nM on fungal (fACC2) (Table 2b, additional results). In addition, the MIC lay within 2.01 to 4 µg/mL (≈ 3.34 to 6.64 µM) in the experiment on C. krusei (setting [7]), 1.01 to 2 µg/mL (≈ 1.68 to 3.32 µM) with C. albicans (setting [8]) and 1.01 to 2 µg/mL (≈ 1.68 to 3.32 µM) in the experiment on C. parapsilosis (setting [9]).
